According to patent US20060234936A1, “Method for screening substances capable of inhibiting the hyperplasia of pancreatic cells and/or the hypersecretion of insulin by pancreatic cells” (Taisho Pharmaceutical Co., Ltd., priority 2005, published 2006):

Experiments:
INS-1 cells = experiment: Analysis of cell growth, [3H] thymidine incorporation in INS-1 cells; assay type: cell-based, rat
Procedure: (§1) INS-1 cells (rat pancreatic β cell line) were cultured in an incubator at 5% CO2/95% air and 37° C. using an RMI 1640 medium (GIBCO) containing 10 mM HEPES, 10% FBS, 1 mM sodium pyruvate, 50 μM β-mercaptoethanol, 100 units/ml penicillin, and 100 μg/ml streptomycin. Subculturing was carried out every 7 days, using PBS containing 0.25% trypsin/0.02% EDTA
The cells were seeded on a 48-well plate at a concentration of 1×10^5 cells/well and were cultured for 48 hours. After washing the cells with PBS, the cells were cultured in an RPMI-1640 medium (test medium) for 12 to 15 hours which had been deprived of serum and to which 3 mM glucose and 0.1% BSA had been added. […] The cells were cultured in the media for 20 hours, and after further addition of [^3H] thymidine (Amersham) to the media in order to achieve a radioactivity of 1 μCi/well, the cells were cultured for additional 4 hours. After washing the cells with PBS twice followed by with 10% trichloroacetic acid (TCA) twice, the cells were fixed by TCA treatment for 30 minutes. The cells were solublized with 0.1 N NaOH and the radioactivity of each medium was measured with a liquid scintillation counter.

isolated islet = conditions: cited from earlier work
Reg IIIβ = experiment: Real-time quantitative RT-PCR of Reg IIIβ mRNA in INS-1 cells treated with PACAP; assay type: cell-based, rat
Procedure: as §1
Real-time quantitative PCR was conducted under the conditions similarly to the mouse islet case. The expression level of the β-actin gene was analyzed as an internal standard in a similar manner. In PCR the primers having the following sequences were used.

Reg IIIβ gene = experiment: Gene expression inhibition by siRNA, Reg IIIβ mRNA by real-time quantitative RT-PCR; assay type: cell-based, rat; conditions: INS-1 cells, siRNA 100 nM, 24 hours after introduction
Procedure: (§2) INS-1 cells (rat pancreatic β cell line) were cultured in an incubator at 5% CO2/95% air and 37° C. using an RPMI 1640 medium (GIBCO) containing 10 mM HEPES, 10% FBS, 1 mM sodium pyruvate, and 50 μM β-mercaptoethanol. Subculturing was carried out every 5 days, using PBS containing 0.25% trypsin/0.02% EDTA.
(§3) The cells were seeded on a 12-well plate (Iwaki Glass Co. Ltd.) at a concentration of 0.25×10^5 cells/cm^2 and were cultured for 48 hours. A cocktail of three types of siRNAs to the Reg IIIβ gene, individual siRNAs (three types), siRNA to Lamin (positive control; B-Bridge), and a cocktail of three types of non-specific siRNAs (negative control; B-Bridge) were diluted with Opti-MEM (GIBCO) so as to produce the final concentrations of 100 nM. The respective RNAs were introduced into the cells using Lipofectamine 2000 (Invitrogen Corporation) and the cells were cultured for 24 hours. After washing the cells with PBS twice, total RNAs were prepared using a SV Total Isolation Kit (Promega Corporation) and cDNA pools were then prepared using reverse transcriptase M-MLV (Invitrogen Corporation). Real-time quantitative PCR was conducted under the conditions similarly to the mouse islet case. The expression level of the rat β-actin gene was analyzed as an internal standard in a similar manner. The sequences of the siRNAs and the sequences of specific primers for PCR are shown below.

Lamin gene = experiment: Gene expression inhibition by siRNA, Lamin mRNA by real-time quantitative RT-PCR; assay type: cell-based, rat; conditions: INS-1 cells, siRNA 100 nM, 24 hours after introduction
Procedure: as §2, §3

CC[C@H](C)[C@H](NC(=O)CNC(=O)[C@H](CC(=O)O)NC(=O)[C@H](CO)NC(=O)[C@@H](N)Cc1c[nH]cn1)C(=O)N[C@@H](Cc1ccccc1)C(=O)N[C@H](C(=O)N[C@@H](CC(=O)O)C(=O)N[C@@H](CO)C(=O)N[C@@H](Cc1ccc(O)cc1)C(=O)N[C@@H](CO)C(=O)N[C@@H](CCCNC(=N)N)C(=O)N[C@@H](Cc1ccc(O)cc1)C(=O)N[C@@H](CCCNC(=N)N)C(=O)N[C@@H](CCCCN)C(=O)N[C@@H](CCC(N)=O)C(=O)N[C@@H](CCSC)C(=O)N[C@@H](C)C(=O)N[C@H](C(=O)N[C@@H](CCCCN)C(=O)N[C@@H](CCCCN)C(=O)N[C@@H](Cc1ccc(O)cc1)C(=O)N[C@@H](CC(C)C)C(=O)N[C@@H](C)C(=O)N[C@@H](C)C(=O)N[C@H](C(=O)N[C@@H](CC(C)C)C(=O)NCC(=O)N[C@@H](CCCCN)C(=O)N[C@@H](CCCNC(=N)N)C(=O)N[C@@H](Cc1ccc(O)cc1)C(=O)N[C@@H](CCCCN)C(=O)N[C@@H](CCC(N)=O)C(=O)N[C@@H](CCCNC(=N)N)C(=O)N[C@H](C(=O)N[C@@H](CCCCN)C(=O)N[C@@H](CC(N)=O)C(=O)N[C@@H](CCCCN)C(N)=O)C(C)C)C(C)C)C(C)C)[C@@H](C)O [PACAP]
effect on cell growth (INS-1 cells; 3 mM glucose): No effects
effect on cell growth (INS-1 cells; 11 mM glucose): No effects
cell growth inhibition, dependence on PACAP concentration (INS-1 cells; high glucose concentration, varying PACAP concentration): inhibited the cell growth of INS-1 cells in a concentration-dependent manner
level at which glucose-inducible insulin secretion is promoted (isolated islet): 10^−14 M
change in mRNA expression of Reg IIIβ (Reg IIIβ; 3 mM glucose): no change in expression
change in mRNA expression of Reg IIIβ (Reg IIIβ; 11 mM glucose): no change in expression
change in mRNA expression of Reg IIIβ (Reg IIIβ; high glucose concentration (25 mM), after 4 hours): expression-induction
change in mRNA expression of Reg IIIβ (Reg IIIβ; high glucose concentration (25 mM), until after 48 hours): continuous increase in the expression

(3): double-stranded siRNA to Reg IIIβ, SEQ ID NO:20/21 (chain 1 GGAAACAGCUACCAAUAUATT; chain 2 UAUAUUGGUAGCUGUUUCCTT; chemistry not given here)
suppression of expression of Reg IIIβ gene vs negative control (Reg IIIβ gene): about 60%

Lamin siRNA: double-stranded siRNA to Lamin A/C, positive control (B-Bridge), SEQ ID NO:14/15 (chain 1 GGUGGUGACGAUCUGGGCUTT; chain 2 AGCCCAGAUCGUCACCACCTT; chemistry not given here)
suppression of expression of Lamin gene vs negative control (Lamin gene): about 65%
